Reference: PubChem BioAssay (NCI)
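Values below derive from 48-hour exposures of cells grown in 96-well plates, with endpoints linearly interpolated between the two concentrations bracketing the appropriate inhibition level. TGI denotes the concentration required for complete inhibition of growth.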

Columns and labels:
Test in all cases: NCI anticancer screen, dose series, 48 h
ACHN renal = system: ACHN renal
COLO 205 colon = system: COLO 205 colon
A549 NSCLC = system: A549 NSCLC
OVCAR-8 ovarian = system: OVCAR-8 ovarian
EKVX NSCLC = system: EKVX NSCLC
CCRF-CEM leukemia = system: CCRF-CEM leukemia
HT29 colon = system: HT29 colon
SF-295 CNS = system: SF-295 CNS
T-47D breast = system: T-47D breast
M14 melanoma = system: M14 melanoma
MALME-3M melanoma = system: MALME-3M melanoma
MDA-MB-231 breast = system: MDA-MB-231 breast
SNB-19 CNS = system: SNB-19 CNS
NCI-H23 lung = system: NCI-H23 lung
HOP-92 NSCLC = system: HOP-92 NSCLC
HL-60(TB) leukemia = system: HL-60(TB) leukemia
PC-3 prostate = system: PC-3 prostate
SF-539 CNS = system: SF-539 CNS
RXF 393 renal = system: RXF 393 renal
SF-268 CNS = system: SF-268 CNS
NCI/ADR-RES ovarian = system: NCI/ADR-RES ovarian
UO-31 renal = system: UO-31 renal
NCI-H460 lung = system: NCI-H460 lung
HS 578T breast = system: HS 578T breast
MCF7 breast = system: MCF7 breast
MDA-MB-435 = system: MDA-MB-435
TK-10 renal = system: TK-10 renal
SNB-75 CNS = system: SNB-75 CNS
MDA-N = system: MDA-N
CAKI-1 renal = system: CAKI-1 renal
NCI-H522 lung = system: NCI-H522 lung
MOLT-4 leukemia = system: MOLT-4 leukemia
A498 renal = system: A498 renal
OVCAR-5 ovarian = system: OVCAR-5 ovarian
BT-549 breast = system: BT-549 breast
SR leukemia = system: SR leukemia
OVCAR-3 ovarian = system: OVCAR-3 ovarian
SK-MEL-2 melanoma = system: SK-MEL-2 melanoma
SW-620 colon = system: SW-620 colon
HOP-62 NSCLC = system: HOP-62 NSCLC
SK-MEL-28 melanoma = system: SK-MEL-28 melanoma
786-0 renal = system: 786-0 renal
HCC-2998 colon = system: HCC-2998 colon
HCT-15 colon = system: HCT-15 colon
SN12C renal = system: SN12C renal
HCT-116 colon = system: HCT-116 colon
UACC-257 melanoma = system: UACC-257 melanoma
OVCAR-4 ovarian = system: OVCAR-4 ovarian
KM12 colon = system: KM12 colon
NCI-H226 lung = system: NCI-H226 lung
LOX IMVI melanoma = system: LOX IMVI melanoma
UACC-62 melanoma = system: UACC-62 melanoma
SK-MEL-5 melanoma = system: SK-MEL-5 melanoma
DU-145 prostate = system: DU-145 prostate
IGROV1 ovarian = system: IGROV1 ovarian
U251 CNS = system: U251 CNS

Measured: TGI

C=CCOc1ccc(/C(N=Nc2ccccc2)=N/NC(=O)c2ccccc2)cc1OC
> 100 µM: all assays above
